Experiment: Stability of TPTA in solid mixtures with urea (HPLC)
Type: physicochemical
Settings: solid 90% urea-10% TPTA, P(H2O) 12.73 mm Hg
Procedure: Solid samples (0.25 g) of urea-TPTA mixtures (90 weight percent urea-10 weight precent TPTA) were weighed into a 10-mL beaker, carefully spread into an even layer in the bottom of the beaker, and heated in a forced draft oven at temperatures of 42°, 50°, and 60° C. Samples were contained in desiccators inside the oven, each desiccator conataining a sodium hydroxide solution to yield a partial pressure of water of 12.73 mm Hg at the temperature employed. After heating, the samples were analyzed by High Performance Liquid Chromatography (HPLC) to determine the percent of the original TPTA remaining.
The calculated decomposition rate for 25° C., which was determined from an Arrhenius plot of the 42°, 50°, and 60° C. data are also illustrated in FIG. 2, supra. From a perusal of FIG. 2 it is clearly evident that the shelf life of urea-TPTA mixtures is of extremely short duration.

Q: What does the source list for NP(N)(N)=S [TPTA, thiophosphoryl triamide]?
A: % of original TPTA remaining (42° C., heating time 0.00 hr): 100.00%; % of original TPTA remaining (42° C., heating time 2.00 hr): 94.78%; % of original TPTA remaining (42° C., heating time 4.00 hr): 83.48%; % of original TPTA remaining (42° C., heating time 5.00 hr): 79.80%; % of original TPTA remaining (42° C., heating time 7.00 hr): 60.03%; % of original TPTA remaining (42° C., heating time 9.0 hr): 53.44%; % of original TPTA remaining (42° C., heating time 9.75 hr): 42.06%; % of original TPTA remaining (42° C., heating time 14.25 hr): 30.69%; % of original TPTA remaining (42° C., heating time 16.00 hr): 8.69%; % of original TPTA remaining (42° C., heating time 18.00 hr): 5.11%; % of original TPTA remaining (50° C., heating time 0.00 hr): 100.00%; % of original TPTA remaining (50° C., heating time 1.01 hr): 97.17%; % of original TPTA remaining (50° C., heating time 2.00 hr): 93.80%; % of original TPTA remaining (50° C., heating time 3.00 hr): 85.92%; % of original TPTA remaining (50° C., heating time 4.00 hr): 71.31%; % of original TPTA remaining (50° C., heating time 5.00 hr): 53.40%; % of original TPTA remaining (50° C., heating time 6.00 hr): 34.26%; % of original TPTA remaining (50° C., heating time 7.00 hr): 23.40%; % of original TPTA remaining (50° C., heating time 8.00 hr): 10.56%; % of original TPTA remaining (60° C., heating time 0.00 hr): 100.00%; % of original TPTA remaining (60° C., heating time 1.00 hr): 94.07%; % of original TPTA remaining (60° C., heating time 2.00 hr): 71.98%; % of original TPTA remaining (60° C., heating time 3.00 hr): 32.26%; % of original TPTA remaining (60° C., heating time 4.00 hr): 3.46%; % of original TPTA remaining (60° C., heating time 5.00 hr): 0.00%; % of original TPTA remaining (60° C., heating time 6.00 hr): 0.00%
